Experimental data from ChEMBL document CHEMBL1201862, “PubChem BioAssay data set” (2004).
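Dose response: 5 concentrations. Exposure: 48 h. Format: 96-well plates. Endpoint: linear interpolation; highest concentration if not reached. The concentration for 50% growth inhibition is given as GI50.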 The source made the active and inactive calls. No stated cut-off is given here; in the data, active = GI50 up to about 1.1 µM and inactive = higher.

How the values were obtained:
Experiment in all cases: inhibition of tumour cell growth, NCI panel, 48 h
786-0 = test system: 786-0
ACHN = test system: ACHN
CCRF-CEM = test system: CCRF-CEM
COLO 205 = test system: COLO 205
DU-145 = test system: DU-145
HCT-116 = test system: HCT-116
K562 = test system: K562
LOX IMVI = test system: LOX IMVI
MCF7 = test system: MCF7
Malme-3M = test system: Malme-3M
NCI-H460 = test system: NCI-H460
NCI/ADR-RES = test system: NCI/ADR-RES
PC-3 = test system: PC-3
RPMI-8226 = test system: RPMI-8226
SN12C = test system: SN12C
UO-31 = test system: UO-31
NCI-H522 = test system: NCI-H522
SF-539 = test system: SF-539
SK-OV-3 = test system: SK-OV-3

Measured: GI50

O=c1[nH]nc(NCCc2ccccc2)c2nnn(Cc3ccccc3)c12
inactive: 786-0 > 100 µM | ACHN > 100 µM | CCRF-CEM > 100 µM | COLO 205 > 100 µM | DU-145 > 100 µM | HCT-116 > 100 µM | K562 > 100 µM | LOX IMVI > 100 µM | MCF7 > 100 µM | Malme-3M > 100 µM | NCI-H460 > 100 µM | NCI/ADR-RES > 100 µM | PC-3 > 100 µM | RPMI-8226 > 100 µM | SN12C > 100 µM | UO-31 > 100 µM

COC(=O)[C@@H](NC(=O)c1ccc(CNC(=O)/C(C)=C/c2ccccc2)cc1)C(C)C
inactive: 786-0 > 100 µM | ACHN > 100 µM | CCRF-CEM 4.71 µM | COLO 205 67.9 µM | DU-145 > 100 µM | HCT-116 > 100 µM | K562 > 100 µM | LOX IMVI 59.2 µM | MCF7 42.2 µM | Malme-3M > 100 µM | NCI-H460 65 µM | NCI-H522 83.9 µM | NCI/ADR-RES > 100 µM | PC-3 > 100 µM | RPMI-8226 69.8 µM | SF-539 > 100 µM | SK-OV-3 > 100 µM | SN12C > 100 µM | UO-31 > 100 µM

COc1cc(C[P+](c2ccccc2)(c2ccccc2)c2ccccc2)cc(OC)c1OC
inactive: 786-0 > 100 µM | ACHN > 100 µM | CCRF-CEM > 100 µM | COLO 205 > 100 µM | HCT-116 > 100 µM | K562 > 100 µM | LOX IMVI > 100 µM | Malme-3M > 100 µM | NCI-H460 > 100 µM | NCI-H522 > 100 µM | RPMI-8226 > 100 µM | SF-539 > 100 µM | SK-OV-3 > 100 µM | SN12C > 100 µM | UO-31 > 100 µM

N#C/C(=C\c1cc(OCc2ccccc2)c(OCc2ccccc2)cn1)C(N)=O
inactive: 786-0 > 100 µM | ACHN > 100 µM | CCRF-CEM 32.1 µM | COLO 205 > 100 µM | HCT-116 35.5 µM | K562 26.2 µM | LOX IMVI 30.5 µM | Malme-3M > 100 µM | NCI-H460 > 100 µM | NCI-H522 19.1 µM | RPMI-8226 36.6 µM | SF-539 > 100 µM | SK-OV-3 > 100 µM | SN12C > 100 µM | UO-31 > 100 µM

COc1cccc(C(=O)N2CCc3ccccc32)c1OC
inactive: 786-0 > 100 µM | ACHN 64.9 µM | CCRF-CEM 42.2 µM | COLO 205 58.7 µM | HCT-116 56.5 µM | K562 34.7 µM | LOX IMVI 87.7 µM | Malme-3M 60.4 µM | NCI-H460 81.8 µM | NCI-H522 47.6 µM | RPMI-8226 35.3 µM | SF-539 > 100 µM | SK-OV-3 48.8 µM | SN12C > 100 µM | UO-31 > 100 µM

OCC(O)C(O)C(O)c1nn(-c2ccc(F)cc2)c2nc3cc(Cl)c(Cl)cc3nc12 (stereo unspecified)
inactive: 786-0 17.3 µM | ACHN > 10 µM | CCRF-CEM 14.9 µM | COLO 205 69 µM | HCT-116 24.5 µM | K562 17.6 µM | LOX IMVI 18.3 µM | Malme-3M 9.51 µM | NCI-H460 25.5 µM | NCI-H522 14.9 µM | RPMI-8226 36.4 µM | SF-539 13.9 µM | SK-OV-3 23.3 µM | SN12C 22.1 µM | UO-31 33.5 µM

C=C(C)[C@H]1CC(=O)[C@@]2(C)C[C@H]3O[C@]3(C)CC/C=C(\C)CC[C@H]12
inactive: 786-0 62.8 µM | ACHN 42.9 µM | CCRF-CEM 32.7 µM | COLO 205 20.8 µM | DU-145 99.5 µM | HCT-116 33.9 µM | K562 18 µM | LOX IMVI 57.5 µM | MCF7 24.8 µM | Malme-3M 44.6 µM | NCI-H460 45.7 µM | NCI-H522 37.1 µM | NCI/ADR-RES 35.4 µM | PC-3 34.7 µM | RPMI-8226 33.4 µM | SF-539 42 µM | SK-OV-3 63.2 µM | SN12C 23.6 µM | UO-31 57.1 µM

CCCCCCCCC(=O)NCCCNCCCNC(=O)CCCCCCCC
inactive: 786-0 1.86 µM | ACHN 5.75 µM | CCRF-CEM 3.28 µM | COLO 205 4.88 µM | HCT-116 5.04 µM | K562 2.18 µM | LOX IMVI 1.77 µM | Malme-3M 12.6 µM | NCI-H460 2.54 µM | NCI-H522 5.05 µM | RPMI-8226 3.23 µM | SF-539 15.7 µM | SK-OV-3 14.3 µM | SN12C 6.19 µM | UO-31 13.2 µM

C1=N\c2ccc(cc2)/N=C\c2ccccc2OCc2cccc(n2)COc2ccccc2/1
inactive: 786-0 45.5 µM | ACHN 61.4 µM | CCRF-CEM > 100 µM | COLO 205 > 100 µM | DU-145 > 100 µM | HCT-116 > 100 µM | K562 > 100 µM | LOX IMVI > 100 µM | MCF7 > 100 µM | Malme-3M > 100 µM | NCI-H460 > 100 µM | NCI-H522 > 100 µM | NCI/ADR-RES > 100 µM | PC-3 > 100 µM | SF-539 10.7 µM | SK-OV-3 > 100 µM | SN12C > 100 µM | UO-31 > 100 µM

Cc1nc2nnnn2c2c1C(=O)Nc1ccccc1N2
inactive: 786-0 > 100 µM | ACHN 73.3 µM | CCRF-CEM > 100 µM | COLO 205 > 100 µM | HCT-116 > 100 µM | K562 > 100 µM | LOX IMVI > 100 µM | Malme-3M > 100 µM | NCI-H460 28.4 µM | NCI-H522 > 100 µM | RPMI-8226 > 100 µM | SF-539 > 100 µM | SK-OV-3 > 100 µM | SN12C > 100 µM | UO-31 > 100 µM

O=C(O)/C=C/C(=O)N1C/C(=C\c2ccccc2)C(=O)/C(=C/c2ccccc2)C1
inactive: 786-0 3.3 µM | ACHN 8.13 µM | CCRF-CEM 2.36 µM | COLO 205 10.2 µM | HCT-116 1.82 µM | K562 2.37 µM | LOX IMVI 3.13 µM | MCF7 4.73 µM | Malme-3M 4.72 µM | NCI-H460 14.1 µM | NCI-H522 1.9 µM | NCI/ADR-RES 8.65 µM | RPMI-8226 1.78 µM | SF-539 10.8 µM | SK-OV-3 21.3 µM | SN12C 6.81 µM | UO-31 18.2 µM

CC[C@]1(Cc2ccc(OC)c(OC)c2)[C@@H]2C[C@@H](C3OCCO3)ON2O[C@H](OC2CCCC2(c2ccccc2)c2ccccc2)[C@@H]1OC(C)=O (stereo partly specified)
inactive: 786-0 20 µM | ACHN 18.1 µM | CCRF-CEM 18.7 µM | COLO 205 26.9 µM | DU-145 26.6 µM | HCT-116 17.4 µM | K562 17.7 µM | LOX IMVI 23.3 µM | MCF7 22.5 µM | NCI-H460 16.1 µM | NCI-H522 15.1 µM | NCI/ADR-RES 28.9 µM | PC-3 24.4 µM | SF-539 40.4 µM | SK-OV-3 43.1 µM | SN12C 31.3 µM | UO-31 20.6 µM
